Drawing on PubChem BioAssay (NCI), this text covers TGI and GI50 for 11 compounds.

Some test systems named below: SF-539 CNS; U251 CNS; ACHN renal; NCI-H460 lung; NCI-H522 lung; K-562 leukemia; SN12C renal; CCRF-CEM leukemia; SK-MEL-5 melanoma; TK-10 renal; OVCAR-5 ovarian; SNB-19 CNS; T-47D breast; MDA-MB-435; A498 renal; DU-145 prostate; SK-MEL-28 melanoma; PC-3 prostate; HOP-92 NSCLC.
What all share (test): NCI-60 cell line screen, 48 h

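Growth conditions: 96-well plates. Treatment: test compound, 48 hours, 5 concentrations. Analysis: linear interpolation between bracketing concentrations; unreached endpoints set to highest concentration. GI50 marks 50% less growth. TGI: total growth inhibition.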

Take `COc1ccc2c(c1)O[C@H]1c3ccc(O)cc3OC[C@@H]21`: the TGI with SF-539 CNS was 49.9 µM; in the assay on U251 CNS, over 100 µM; with ACHN renal, 81.4 µM; in the assay on NCI-H460 lung, over 100 µM; with NCI-H522 lung it was 79.4 µM; with K-562 leukemia, over 100 µM. Further, the TGI in the assay on SN12C renal is over 100 µM; in the assay with CCRF-CEM leukemia, 65.8 µM; in the assay on SK-MEL-5 melanoma it was 32 µM; in the assay with TK-10 renal it was over 100 µM; in the assay on OVCAR-5 ovarian it was over 100 µM; in the assay with SNB-19 CNS, over 100 µM.

As to `O=C(O)c1cncc(C(=O)O)c1`, the TGI in the assay with T-47D breast, in the assay with SF-539 CNS, in the assay on MDA-MB-435, in the assay on U251 CNS, with A498 renal and in the assay with ACHN renal was over 100 µM throughout. The TGI in the assay on DU-145 prostate, in the assay on NCI-H460 lung, in the assay on SK-MEL-28 melanoma, with NCI-H522 lung, with PC-3 prostate and in the assay on K-562 leukemia was over 100 µM in each case. The TGI with SN12C renal, in the assay on CCRF-CEM leukemia, in the assay with SK-MEL-5 melanoma, in the assay on TK-10 renal, in the assay with OVCAR-5 ovarian and with SNB-19 CNS was over 100 µM each time.

For the compound `O=c1[nH]cc(N(CCCl)CCCl)c(=O)[nH]1`, the TGI in the assay with T-47D breast came out at 183 µM; with SF-539 CNS it was 60.5 µM; with MDA-MB-435, 136 µM; with U251 CNS, 253 µM; in the assay with A498 renal it was 191 µM; in the assay on ACHN renal it was 92.6 µM. The TGI with DU-145 prostate is 303 µM; with NCI-H460 lung it was 155 µM; with HOP-92 NSCLC it was 123 µM; with SK-MEL-28 melanoma it was 204 µM; with NCI-H522 lung, 60.9 µM; in the assay on PC-3 prostate, 188 µM. In addition, the TGI worked out at 283 µM with K-562 leukemia; 162 µM with SN12C renal; 113 µM with CCRF-CEM leukemia; 115 µM in the assay on SK-MEL-5 melanoma; 325 µM with TK-10 renal; 186 µM in the assay on OVCAR-5 ovarian. In the assay on SNB-19 CNS, this compound came in with a TGI of 400 µM.

On to `COc1cccc(C2C(C(=O)O)=C(CO)Oc3cc4c(cc32)OCO4)c1` (stereo not drawn), for which the TGI in the assay on SF-539 CNS, in the assay on U251 CNS, in the assay with A498 renal, in the assay on ACHN renal, in the assay on NCI-H460 lung and in the assay on HOP-92 NSCLC was over 100 µM in each case. Besides, the TGI in the assay on SK-MEL-28 melanoma, in the assay on NCI-H522 lung, in the assay on K-562 leukemia, with SN12C renal, in the assay on CCRF-CEM leukemia and in the assay on SK-MEL-5 melanoma was over 100 µM throughout. The TGI in the assay on TK-10 renal and with SNB-19 CNS was over 100 µM each time.

On to `c1ccc(SC(Sc2ccccc2)c2ccc3c(c2)OCO3)cc1`, for which the TGI in the assay with T-47D breast, in the assay with MDA-MB-435, with U251 CNS, in the assay on A498 renal, in the assay with ACHN renal and in the assay with DU-145 prostate was over 100 µM in each case. Also, the TGI in the assay with NCI-H460 lung, in the assay on HOP-92 NSCLC, in the assay on SK-MEL-28 melanoma, with NCI-H522 lung, in the assay with PC-3 prostate and in the assay with K-562 leukemia was over 100 µM in each case. For the same compound, the TGI with SN12C renal, with CCRF-CEM leukemia, with SK-MEL-5 melanoma, in the assay on TK-10 renal, in the assay on OVCAR-5 ovarian and with SNB-19 CNS was over 100 µM throughout.

For the compound `COc1ccc2c[n+](C)c3c4cc(OC)c(OC)cc4ccc3c2c1`, the TGI in the assay on T-47D breast was 18.9 µM; with SF-539 CNS, 24.9 µM; in the assay with MDA-MB-435, 28.4 µM; in the assay with U251 CNS, 15.3 µM; in the assay with A498 renal, over 100 µM; in the assay on ACHN renal, over 92.5 µM. In addition, the TGI in the assay on DU-145 prostate amounted to 37.4 µM; with NCI-H460 lung, 19.3 µM; in the assay on HOP-92 NSCLC, 35.3 µM; in the assay with SK-MEL-28 melanoma it was 40.1 µM; in the assay with NCI-H522 lung it was 7.5 µM; with PC-3 prostate, 16.2 µM. In addition, the TGI with K-562 leukemia was 34.9 µM; in the assay with SN12C renal, 12.6 µM; with CCRF-CEM leukemia, 31.2 µM; in the assay with SK-MEL-5 melanoma, 29.3 µM; in the assay with TK-10 renal, 51.5 µM; in the assay on OVCAR-5 ovarian, 34.4 µM. For the same compound, the TGI with SNB-19 CNS is 12 µM.

On to `CCN(CC)CCC(=O)c1ccccc1`, for which the TGI was found to be 44.2 µM with SF-539 CNS; 47.4 µM with U251 CNS; 29.7 µM in the assay on ACHN renal; 97.8 µM in the assay on NCI-H460 lung; 28.5 µM in the assay with HOP-92 NSCLC; 33 µM with SK-MEL-28 melanoma. Moreover, the TGI in the assay on SN12C renal is 35.2 µM; in the assay on CCRF-CEM leukemia it was 36.9 µM; in the assay with SK-MEL-5 melanoma, over 100 µM; in the assay with TK-10 renal, 43.4 µM; in the assay with OVCAR-5 ovarian, 40.9 µM; in the assay with SNB-19 CNS, over 100 µM.

As for `O=C(O)/C=C/c1cnc[nH]1`, the TGI with SF-539 CNS, with U251 CNS, in the assay with A498 renal, with NCI-H460 lung, with HOP-92 NSCLC and with SK-MEL-28 melanoma was over 500 µM each time. Moreover, the TGI in the assay with NCI-H522 lung is over 500 µM; in the assay on K-562 leukemia, over 500 µM; with SN12C renal, over 500 µM; in the assay on CCRF-CEM leukemia, over 500 µM; in the assay with SK-MEL-5 melanoma it was over 232 µM; in the assay with OVCAR-5 ovarian it was over 500 µM. The compound also displayed a TGI in the assay on SNB-19 CNS of over 500 µM. Also, the GI50 in the assay with CCRF-CEM leukemia was over 500 µM.

In the case of `CC(=O)[O-].CC(=O)[O-].O=C(N/N=C/c1cc(Cl)cc(Cl)c1[OH2+])c1ccncc1.[Zn+2]`, the TGI in the assay on SF-539 CNS, in the assay on U251 CNS, with A498 renal, in the assay on ACHN renal, with NCI-H460 lung and in the assay with SK-MEL-28 melanoma was over 100 µM each time. For the same compound, the TGI with NCI-H522 lung, in the assay on K-562 leukemia, with SN12C renal, with CCRF-CEM leukemia, in the assay on SK-MEL-5 melanoma and with TK-10 renal was over 100 µM each time. Moreover, the TGI with OVCAR-5 ovarian and with SNB-19 CNS was over 100 µM in each case.

Regarding `CC(=O)NC(CCCCNC(=O)OC(C)(C)C)C(=O)O` (stereo not drawn), the TGI with T-47D breast, in the assay with MDA-MB-435, with U251 CNS, in the assay with A498 renal, in the assay on ACHN renal and in the assay on DU-145 prostate was over 100 µM each time. Moreover, the TGI with NCI-H460 lung, with SK-MEL-28 melanoma, in the assay on NCI-H522 lung, with PC-3 prostate, with K-562 leukemia and with CCRF-CEM leukemia was over 100 µM throughout. Besides, the TGI with SK-MEL-5 melanoma, in the assay on TK-10 renal, with OVCAR-5 ovarian and in the assay on SNB-19 CNS was over 100 µM in each case.

As to `CCOC(=O)C1(C(=O)OCC)CSC1`, the TGI in the assay with T-47D breast, with MDA-MB-435, in the assay on U251 CNS, with A498 renal, in the assay on ACHN renal and in the assay on DU-145 prostate was over 100 µM each time. The TGI was 1.74 µM in the assay on NCI-H460 lung; over 100 µM in the assay on HOP-92 NSCLC; over 100 µM in the assay with SK-MEL-28 melanoma; over 100 µM in the assay with NCI-H522 lung; over 100 µM with PC-3 prostate; over 100 µM in the assay with K-562 leukemia. In addition, the TGI in the assay on SN12C renal, in the assay with CCRF-CEM leukemia, with SK-MEL-5 melanoma, in the assay with TK-10 renal and in the assay on SNB-19 CNS was over 100 µM each time.
